Results on two compounds are retold here after publication PMC2877487 (Bioorganic & medicinal chemistry letters, 2009).

A short description of data set [1]: Stability by HPLC peak area decrease, first order decay half-life. In kind it is physicochemical. The following applies: culture media, First order decay half-life (t1/2).
The conditions of data set [2]: buffer; cited from earlier work.

Like-named read-outs stand apart in the source and are kept apart here.

Regarding `COC[C@H]1OC(=O)c2coc3c2[C@@]1(C)C1=C(C3=O)[C@@H]2CCC(=O)[C@@]2(C)C[C@H]1OC(C)=O` [Wm, wortmannin], the half-life in data set [1] was under 1 min; in data set [2] it was 57.8 h. In turn, `C[C@@]12c3ccc4c(c3C(=O)c3occ(c31)C(=O)C[C@H]2OC(=O)CCC(=O)O)CCC4=O` [SA-Dmv] displayed a half-life in data set [1] of under 1 min.
